Earlier results in US20200214978A1, “Functional chewing gum comprising phytonutrients and adaptogenic herbs” (BrilliantIQ AB, priority 2017, published 2020).

Key:
[1] = oral administration
[2] = supplementation, group of healthy adults

| Compound | beta waves [1] | delta waves [1] | increase the speed of calculations done in short-term memory [2] [%] |
| --- | --- | --- | --- |
| C[N+](C)(C)CCOP(=O)([O-])OC[C@H](O)CO [alpha-GPC, L-Alpha glycerolphosphorylcholine] | significant increase | significant decrease | – |
| Phosphatidylserine | – | – | 20 |
